From patent US20250282798A1, “HETEROARYL-SUBSTITUTED BICYCLIC COMPOUND AND USE THEREOF” (Medshine Discovery Inc., priority 2022, published 2025)

How the values were obtained:
human HPK1 [1] = target: T1, human HPK1 (Homo sapiens (Human), UniProt Q92918); test: Kinase activity assay using ADP-Glo method (Method 2); type: biochemical; conditions: HPK1 enzyme concentration 0.1 nM; ATP concentration 10 μM
Experimental: Method 2: The IC50 value was assayed by the kinase activity assay using ADP-Glo method to evaluate the inhibitory ability of a test compound on human HPK1.
Enzyme buffer conditions: 50 mM Hepes (pH 7.5), 10 mM MgCl2, 1 mM EGTA, 0.01% Brij35, 2 mM DTT. […]
(§1) Assay steps: A compound was diluted 4-fold with DMSO in a dilution plate, with a final initial concentration of […] and 10 concentration gradient points. The compound was diluted 50-fold into the kinase reaction buffer, and the mixture was shaken on a shaker for 20 minutes. The kinase was prepared with the enzyme reaction buffer. 2 μL of kinase was added to each well of a reaction plate. 1 μL of the diluted compound in the buffer was added to each well. The plate was sealed with a sealing film, centrifuged at 1000 g for 30 seconds, and placed at room temperature for 10 minutes. The mixed solution of ATP/MBP was prepared with the enzyme reaction buffer. 2 μL of the mixed solution of ATP/MBP was added to the reaction plate. The plate was sealed with a sealing film, and centrifuged at 1000 g for 30 seconds. The mixture in the plate was reacted at room temperature for 60 minutes. […] The plate was incubated at 25° C. for 40 min. […] The plate was incubated at 25° C. for 40 min. The RLU (relative luminescence unit) signal was read with a BMG microplate reader, and the signal intensity was used to characterize the activity of the kinase.
(§2) The kinase activity data were expressed as the comparison of the kinase activity of a group with a test compound and the kinase activity of the blank group (containing only DMSO). The IC50 value was obtained by curve fitting using Prism software (GraphPad7.0).

human GLK = human GLK (Homo sapiens (Human), UniProt Q8IVH8); test: Kinase activity assay using ADP-Glo method, GLK; type: biochemical; conditions: GLK enzyme concentration 8 nM; ATP 20 μM
Chain of human GLK (Q8IVH8 whole entry): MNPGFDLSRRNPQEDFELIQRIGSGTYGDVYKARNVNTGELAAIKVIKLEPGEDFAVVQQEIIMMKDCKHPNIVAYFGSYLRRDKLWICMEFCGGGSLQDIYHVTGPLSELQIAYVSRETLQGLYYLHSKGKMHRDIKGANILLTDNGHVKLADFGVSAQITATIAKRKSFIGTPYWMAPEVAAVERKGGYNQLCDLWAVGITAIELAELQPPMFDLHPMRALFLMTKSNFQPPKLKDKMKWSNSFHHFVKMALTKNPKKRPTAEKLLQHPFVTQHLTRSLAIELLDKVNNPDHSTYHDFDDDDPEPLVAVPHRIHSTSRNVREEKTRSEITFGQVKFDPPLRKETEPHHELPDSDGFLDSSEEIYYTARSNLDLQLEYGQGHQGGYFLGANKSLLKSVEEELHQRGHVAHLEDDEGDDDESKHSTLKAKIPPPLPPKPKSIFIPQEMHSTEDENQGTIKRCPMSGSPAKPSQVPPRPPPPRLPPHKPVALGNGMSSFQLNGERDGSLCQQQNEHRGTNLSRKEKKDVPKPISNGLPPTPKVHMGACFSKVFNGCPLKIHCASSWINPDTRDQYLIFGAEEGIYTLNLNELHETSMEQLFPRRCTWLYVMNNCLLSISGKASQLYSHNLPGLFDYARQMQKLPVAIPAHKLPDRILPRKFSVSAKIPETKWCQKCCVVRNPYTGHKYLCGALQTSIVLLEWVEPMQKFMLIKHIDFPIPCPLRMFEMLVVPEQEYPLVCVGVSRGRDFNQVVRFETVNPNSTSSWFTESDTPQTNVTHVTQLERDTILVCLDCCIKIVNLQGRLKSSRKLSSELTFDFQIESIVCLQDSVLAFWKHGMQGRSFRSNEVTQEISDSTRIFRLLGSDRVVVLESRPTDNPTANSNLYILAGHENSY
Experimental: The IC50 value was assayed by the kinase activity assay using ADP-Glo method to evaluate the inhibitory ability of a test compound on human GLK.
(§3) Enzyme buffer conditions: 50 mM Hepes (pH 7.5), 10 mM MgCl2, 1 mM EGTA, 0.01% Brij35, 2 mM DTT.
Preparation of the mixture of kinase and substrate: the concentration of GLK in the reaction solution was 8 nM, the concentration of ATP was […], and the concentration of MBP was 0.05 mg/mL.
Assay steps: A compound was diluted 4-fold with DMSO in a dilution plate, with a final initial concentration of […] and 10 concentration gradient points. The compound was diluted 50-fold into the kinase reaction buffer, and the mixture was shaken on a shaker for 20 minutes. The kinase was prepared with the enzyme reaction buffer. 2 μL of kinase was added to each well of a reaction plate. 1 μL of the diluted compound in the buffer was added to each well. The plate was sealed with a sealing film, centrifuged at 1000 g for 30 seconds, and placed at room temperature for 10 minutes. The mixed solution of ATP/MBP was prepared with the enzyme reaction buffer. 2 μL of the mixed solution of ATP/MBP was added to the reaction plate. The plate was sealed with a sealing film, and centrifuged at 1000 g for 30 seconds. The mixture in the plate was reacted at room temperature for 60 minutes. 4 μL of ADP-Glo was transferred to the 384 reaction plate, and centrifuged at 1000 rpm/min for 1 min. The plate was incubated at 25° C. for 40 min. 8 μL of detection solution was transferred to the 384 reaction plate, and centrifuged at 1000 rpm/min for 1 min. The plate was incubated at 25° C. for 40 min. The RLU (relative luminescence unit) signal was read with a BMG microplate reader, and the signal intensity was used to characterize the activity of the kinase.
as §2

[2] = In vitro metabolic stability in human liver microsomes; type: in vitro ADME; conditions: 1 μM compound, 0.5 mg/mL protein
Experimental: The in vitro metabolic stability of the compounds of the present disclosure in human was investigated by the metabolic stability in human liver microsomes.
Assay conditions: 1 μM of a compound was incubated with human liver microsomes supplemented with NADPH regeneration system at 37° C. for a certain period of time up to 60 minutes. The concentration of the compound in the resulting sample was assayed by LC-MS/MS method.
Assay procedure: 96-well incubation plates were named T0, T5, T15, T30, T45, T60, Blank60 and NCF60, respectively. The reaction time corresponding to the incubation plates were 0, 5, 15, 30, 45 and 60 minutes, respectively. No test sample or control compound was added to the Blank60 plate, and samples were taken after 60 minutes of incubation. Potassium phosphate buffer was used instead of NADPH regeneration system solution in the NCF60 plate, and the plate was incubated for 60 minutes. All the samples of the time points were from a single well.
5 μL of a test sample or control sample working solution and 100 μL of microsome working solution (the concentration of liver microsome protein was 0.5 mg/mL) were added to the T0, T5, T15, T30, T45, T60 and NCF60 plates, respectively. Only microsome working solution was added to the Blank60 plate. Then, the Blank60, T5, T15, T30, T45 and T60 plates, except TO and NCF60 plates, were placed in a 37° C. water bath, and preincubated for about 10 minutes.
180 μL of stop solution (the stop solution was a solution of tolbutamide (100 ng/mL) in acetonitrile and methanol (95:5, V/V)) was firstly added to the sample of TO plate, and then the NADPH regeneration system working solution was added.
50 μL of potassium phosphate buffer was added to each well of the NCF60 plate, and the plate was incubated for 60 minutes.
After the pre-incubation of Blank60, T5, T15, T30, T45 and T60 plates, 44 μL of NADPH regeneration system working solution was added to each sample well to initiate the reaction. Therefore, for the sample wells containing a test sample or control sample working solution, the final concentration of the reaction was […], the concentration of liver microsomes was 0.5 mg/mL, and the final concentrations of DMSO and acetonitrile in the reaction system were 0.01% (v/v) and 0.99% (v/v), respectively.
After being incubated for an appropriate time (e.g., 5, 15, 30, 45, and 60 min), 180 μL of stop solution was added to each well of the test sample and control sample of Blank60, T5, T15, T30, T45, T60, and NCF60 plates, respectively, to terminate the reaction.
All sample plates were shaken and centrifuged for 10 min. 80 μL of the supernatant of a test sample was taken and diluted into 240 μL of a mixture of acetonitrile and water (1:9, V/V) containing 0.1% formic acid for LC-MS/MS analysis.
By calculating the corresponding time point and the remaining percentage of a compound, the half-life T1/2 and clearance rate CLint(liver) of the compound in human liver microsome metabolism were obtained.

[3] = Pharmacokinetic evaluation in mice; type: in vivo, female Balb/c mice
Experimental: Assay procedure: 10% DMSO+20% PEG400+70% (30% SBE-P3-CD aqueous solution) (the trifluoroacetate of compound 4, the trifluoroacetate of compound 9) or 10% SBE-β-CD aqueous solution (the trifluoroacetate of compound 24-3) was injected into female Balb/c mice (overnight fasting, 7-9 weeks old) via the tail vein. Female Balb/c mice (overnight fasting, 7-9 weeks old) were gavaged with 10% DMSO+20% PEG400+70% (30% SBE-β-CD aqueous solution (the trifluoroacetate of compound 4, the trifluoroacetate of compound 9) or 10% SBE-P3-CD aqueous solution (the trifluoroacetate of compound 24-3) at dosages shown in Table 7. About 30 μL of blood of the two groups of animals was collected from the jugular vein at 0.0833, 0.25, 0.5, 1.0, 2.0, 4.0, 8.0, and 24 hours after the administration, and from the tail vein at 0.25, 0.5, 1.0, 2.0, 4.0, 8.0, and 24 hours after the administration, respectively, and placed in an anticoagulant tube with EDTA-K2 added. The tube was centrifuged to separate the plasma. The plasma concentration was assayed by LC-MS/MS. The relevant pharmacokinetic parameters were calculated with WinNonlin™ Version 6.3 (Pharsight, Mountain View, CA) pharmacokinetic software using the non-compartmental linear logarithmic trapezoidal method.

MDR1 (P-glycoprotein) = test: Permeability evaluation in MDR1-MDCK II cells; type: in vitro ADME; conditions: dog
Experimental: Cell line: The MDR1-MDCK II cell line authorized by Piet Borst's laboratory at the Netherlands Cancer Research Institute was used in this assay as an in vitro model for the permeability evaluation assay. The cells were inoculated in a Transwell-96 well cell plate at a density of 2.3×10^5 cells/cm^2, and cultured in a carbon dioxide incubator for 4-7 days before use in the transport assay.
The administration concentration of the test sample was 2.00 μM.
Test direction and number of parallel samples: bidirectional A-B and B-A, 2 parallels
Transport buffer (TB): HBSS solution containing 10 mM HEPES (pH 7.40±0.05)
Incubation conditions: 37±1° C., 5% CO2, incubated for 150 minutes
Control compounds: Nadolol and metoprolol were used as low-permeability and high-permeability control compounds. Digoxin was used as a substrate of P-glycoprotein. The administration concentration of nadolol and metoprolol was 2.00 μM, and the administration concentration of digoxin was 10.0 μM.
After the transport assay, the integrity of the MDR1-MDCK II cell layer was assayed by the Lucifer Yellow Rejection Assay. The remaining solution in the apical and basolateral wells was removed. 75 μL of TB containing 100 μM Lucifer Yellow was added to the apical well, and 250 μL of TB was added to the basolateral well. The cell plate was incubated in a cell culture incubator at 37±1° C., 5% CO2 and saturated humidity for 30 minutes. Then, 20 μL of sample was taken from the apical well and mixed with 60 μL of TB, and 80 μL of sample was taken from the basolateral well. The relative fluorescence unit (RFU) was measured at 425/528 nm (excitation/emission) using a microplate reader.
In this assay, the sample analysis of the test samples and control compounds of nadolol, metoprolol, and digoxin was performed by liquid chromatography-tandem mass spectrometry (LC-MS/MS). The retention time of the analytes and internal standards, chromatogram acquisition, and chromatogram integration were processed using the software Analyst (Sciex, Framingham, MA, USA). The sample analysis was semi-quantitatively determined using the peak area of analyte and the peak area of internal standard.
VR is the volume of the receiver end solution (0.075 mL for side A, and 0.25 mL for side B); Area is the relative surface area of the cell monolayer (0.0804 cm2); Time is the incubation time (9000 s); C0 is the peak area ratio of the compound at the administration end; VD is the volume of the administration end (0.075 mL for side A, and 0.25 mL for side B); CD and CR are the peak area ratios of the compound at the administration end and the receiver end, respectively.

human HPK1 [4] = target: T1, human HPK1; test: 33P isotope-labeled kinase activity assay (Method 1); type: biochemical; conditions: HPK1 enzyme concentration 8.1 nM; ATP concentration 15 μM
Experimental: Method 1: The IC50 value was assayed by ^33P isotope-labeled kinase activity assay to evaluate the inhibitory ability of a test compound on human HPK1.
as §3
as §1, with “3-fold” for “4-fold”

[5] = female, Balb/c, mouse, plasma, IV 2 mg/kg
[6] = female, Balb/c, mouse, plasma, PO 75 mg/kg

T1 sequence (Q92918 whole entry): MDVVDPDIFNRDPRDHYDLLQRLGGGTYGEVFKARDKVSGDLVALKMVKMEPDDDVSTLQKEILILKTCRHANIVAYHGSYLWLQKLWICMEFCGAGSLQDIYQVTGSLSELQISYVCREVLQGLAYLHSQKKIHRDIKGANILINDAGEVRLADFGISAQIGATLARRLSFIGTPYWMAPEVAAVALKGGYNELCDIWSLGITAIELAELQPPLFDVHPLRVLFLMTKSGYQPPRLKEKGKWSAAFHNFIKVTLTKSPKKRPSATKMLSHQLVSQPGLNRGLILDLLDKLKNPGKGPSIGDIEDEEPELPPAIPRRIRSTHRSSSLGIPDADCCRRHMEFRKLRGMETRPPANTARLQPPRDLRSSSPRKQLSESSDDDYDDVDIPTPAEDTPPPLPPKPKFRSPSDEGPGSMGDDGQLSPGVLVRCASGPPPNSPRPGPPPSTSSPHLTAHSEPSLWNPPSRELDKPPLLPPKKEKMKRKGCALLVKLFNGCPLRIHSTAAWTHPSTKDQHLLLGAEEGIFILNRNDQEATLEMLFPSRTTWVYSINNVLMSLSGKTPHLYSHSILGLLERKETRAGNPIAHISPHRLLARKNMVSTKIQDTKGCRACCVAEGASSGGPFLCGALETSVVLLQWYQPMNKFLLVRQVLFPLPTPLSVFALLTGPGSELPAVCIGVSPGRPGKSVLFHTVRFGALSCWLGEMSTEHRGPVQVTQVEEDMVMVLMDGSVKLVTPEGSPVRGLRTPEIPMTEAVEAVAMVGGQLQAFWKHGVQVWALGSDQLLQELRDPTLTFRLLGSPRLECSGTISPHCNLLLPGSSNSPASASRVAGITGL

## O=C1NCc2c(-c3cnc4cc(F)ccn34)ccc(Nc3ccc4c(n3)OC[C@H]3COCCN43)c21 [Compound 9]
Human HPK1 [1]
  IC50: 0.7 nM
Human GLK
  IC50: 115 nM
[2]
  CLint scaled at 1 μM: 39 mL/min/kg
  half-life at 1 μM: 32 min

## CN1Cc2nc(Nc3ccc(-c4cnc5cc(F)ccn45)c4c3C(=O)NC4)ccc2N2CCOCC2C1 (stereo not drawn) [Trifluoroacetate of compound 16]
Human GLK
  IC50: 277 nM

## O=C1NCc2c(-c3cnc4cc(F)ccn34)ccc(Nc3ccc4c(n3)OC[C@H]3COCCN43)c21 [Trifluoroacetate of compound 9]
[3]; IV 2 mg/kg
  Tlast: 2 h
[3]; PO 75 mg/kg
  Tlast: 8 h
[3]; [5]
  AUC(0-inf): 1.95 µM·h
  AUC(0-t): 1.93 µM·h
  C0: 6.06 µM
  clearance: 36 mL/min/kg
  half-life: 18 min
[3]; female, Balb/c, mouse, plasma, IV 2 mg/kg, read-out: Vdss
  Vd: 0.8 L/kg
[3]; [6]
  AUC(0-inf): 108 µM·h
  AUC(0-t): 108 µM·h
  Cmax: 39.8 µM
  Tmax: 48 min
  half-life: 48 min
[3]; female, Balb/c, mouse, plasma, PO 75 mg/kg vs IV 2 mg/kg, calculated using AUC0-last
  bioavailability: 148%

## Cn1ccc2c(-c3ncc(Nc4ccc5c(n4)OC[C@H]4COCCN54)c4c3CNC4=O)ccnc21 [Trifluoroacetate of compound 20]
Human GLK
  IC50: 198 nM
[2]
  CLint scaled at 1 μM: 63 mL/min/kg
  half-life at 1 μM: 20 min
MDR1 (P-glycoprotein); pH 7.4, 2.00 μM, 150 minutes
  Papp A→B at 150 min, 2 μM: 4.61 ×10⁻⁶ cm/s
  Papp B→A at 150 min, 2 μM: 22.5 ×10⁻⁶ cm/s
  efflux ratio at 150 min, 2 μM: 4.88
MDR1 (P-glycoprotein); pH 7.4, class by Papp, read-out: Conclusion of the permeability
  Papp at 150 min, 2 μM: 1 to 5.5 ×10⁻⁶ cm/s

## CN(C)Cc1cc(Nc2ncc(-c3cnc4cc(F)ccn34)c3c2C(=O)NC3)ccc1N1CCOCC1 [Compound 2]
Human HPK1 [4]
  IC50: 18 nM
